Results reported in ChEMBL document CHEMBL1201862, “PubChem BioAssay data set” (2004).
Activity calls are given as the source filed them.

What was measured:
[1] = molecular target: T1, ATP-dependent translocase ABCB1 (Homo sapiens, UniProt P08183); assay: ABCG2 efflux pump inhibitor potency, dose response, Ig-MXP3 cells, JC-1, flow cytometry, set 2 (AID 504566); assay type: functional; conditions: read-out: EC50_MICROM_;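 further: flow cytometry median green fluorescence of retained JC-1 dye; potency of efflux pump inhibition measured as rising substrate retention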
[2] = HEp-2 cell cytotoxicity, dose response, cytotoxicity control for RSV inhibitor project, HTS (AID 2410); assay type: functional; conditions: human respiratory syncytial virus
[3] = molecular target: T1, ATP-dependent translocase ABCB1; assay: ABCB1 efflux inhibitor potency, dose response, Jurkat-DNR cells, JC-1, flow cytometry, set 2 (AID 504569); assay type: functional; conditions: read-out: EC50_MICROM_;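 further: potency of pump inhibitors that raise cellular JC-1 green fluorescence up to the nicardipine level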
Melanocortin receptor 4 = Melanocortin receptor 4 (Homo sapiens, UniProt P32245); assay type: functional, cell-based;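 further: Cell-based assay with luminescence read-out, confirmatory dose-response testing for agonist activity of biased ligands at MC4R; human U2OS cells with tagged receptor and beta-arrestin; potency of agonists that increase receptor coupling to beta-arrestin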
[4] = non-specific cell cytotoxicity, dose response, cytotoxicity control for PAX8 inhibitor project, plate reader, dry powder samples (AID 743021); assay type: functional, cell-based
Paired box protein Pax-8 = Paired box protein Pax-8 (Homo sapiens, UniProt Q06710); assay: inhibitors of PAX8-driven TPO luciferase reporter, dose response, RMG-I cells, cherry-pick (AID 687027); assay type: functional, cell-based;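 further: luciferase reporter driven by Pax8 target thyroperoxidase promoter measured by SteadyGlo luminescence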
[5] = Fluorescence-based cell-based high throughput dose response assay for inhibitors of the interaction of nucleotide-binding oligomerization domain containing 2 (NOD2) and the receptor-interacting serine-threonine kinase 2 (RIPK2).; assay type: functional; conditions: Homo sapiens
Beta Lactamase = Beta Lactamase (Pseudomonas aeruginosa, UniProt Q932Y6); assay: beta-lactamase reporter inhibitor potency, dose response, artefact control for NOD2-RIPK2 interaction inhibitor project, BLA reporter cells, FRET fluorescence (AID 651552); assay type: functional, cell-based
[6] = Luminescence Cell-Based Dose Retest to Confirm Inhibitors of Cancer Stem Cells. [Related pubchem assays (depositor defined):AID2717, AID2721]; assay type: functional; conditions: Homo sapiens
INS1 = assay: beta cell apoptosis inhibitors, cytokine rescue, dose response, luminescence, retest (AID 449756); assay type: functional, cell-based; conditions: Rattus norvegicus;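 further: cell death triggered by IL-1 beta plus TNF-alpha plus IFN-gamma mixture; protective hits raise ATP signal compared with cytokine alone wells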
[7] = molecular target: T2, Replicative DNA helicase DnaB (Mycobacterium tuberculosis, UniProt P9WMR3); assay: DnaB intein splicing inhibitors, dose response, biochemical, cell-free fluorescence (AID 449749); assay type: functional
T2 sequence (P9WMR3 whole entry): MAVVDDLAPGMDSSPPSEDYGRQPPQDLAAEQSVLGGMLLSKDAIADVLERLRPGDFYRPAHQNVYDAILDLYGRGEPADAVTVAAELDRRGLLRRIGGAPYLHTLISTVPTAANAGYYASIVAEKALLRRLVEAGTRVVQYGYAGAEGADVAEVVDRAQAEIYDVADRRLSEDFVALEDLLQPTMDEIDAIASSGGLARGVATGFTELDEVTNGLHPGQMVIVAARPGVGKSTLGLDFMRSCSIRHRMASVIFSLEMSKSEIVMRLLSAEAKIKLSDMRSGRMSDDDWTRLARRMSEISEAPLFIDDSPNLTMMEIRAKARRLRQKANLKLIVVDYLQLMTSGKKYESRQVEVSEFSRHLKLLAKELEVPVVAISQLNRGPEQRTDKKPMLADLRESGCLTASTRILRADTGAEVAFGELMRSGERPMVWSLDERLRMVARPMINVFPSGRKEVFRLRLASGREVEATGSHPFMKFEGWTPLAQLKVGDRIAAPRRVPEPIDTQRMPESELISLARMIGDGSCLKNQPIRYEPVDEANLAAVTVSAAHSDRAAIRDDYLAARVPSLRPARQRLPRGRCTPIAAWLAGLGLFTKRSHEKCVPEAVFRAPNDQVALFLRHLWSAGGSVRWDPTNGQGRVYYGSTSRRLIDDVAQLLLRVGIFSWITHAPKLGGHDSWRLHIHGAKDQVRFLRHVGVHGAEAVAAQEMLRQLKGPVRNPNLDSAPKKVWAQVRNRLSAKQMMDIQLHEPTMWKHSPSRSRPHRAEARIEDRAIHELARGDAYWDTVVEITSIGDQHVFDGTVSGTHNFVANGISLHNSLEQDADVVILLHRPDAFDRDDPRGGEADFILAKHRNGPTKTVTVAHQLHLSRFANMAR

Protein RecA = molecular target: T3, Protein RecA (Mycobacterium tuberculosis, UniProt P9WHJ3); assay: Fluorescence Cell-Free Homogeneous Dose Retest to Identify Inhibitors of RecA-Intein Splicing Activity. [Related pubchem assays (depositor defined):AID2097, AID2223, AID489010, AID492950]; assay type: functional
T3 sequence (P9WHJ3 whole entry): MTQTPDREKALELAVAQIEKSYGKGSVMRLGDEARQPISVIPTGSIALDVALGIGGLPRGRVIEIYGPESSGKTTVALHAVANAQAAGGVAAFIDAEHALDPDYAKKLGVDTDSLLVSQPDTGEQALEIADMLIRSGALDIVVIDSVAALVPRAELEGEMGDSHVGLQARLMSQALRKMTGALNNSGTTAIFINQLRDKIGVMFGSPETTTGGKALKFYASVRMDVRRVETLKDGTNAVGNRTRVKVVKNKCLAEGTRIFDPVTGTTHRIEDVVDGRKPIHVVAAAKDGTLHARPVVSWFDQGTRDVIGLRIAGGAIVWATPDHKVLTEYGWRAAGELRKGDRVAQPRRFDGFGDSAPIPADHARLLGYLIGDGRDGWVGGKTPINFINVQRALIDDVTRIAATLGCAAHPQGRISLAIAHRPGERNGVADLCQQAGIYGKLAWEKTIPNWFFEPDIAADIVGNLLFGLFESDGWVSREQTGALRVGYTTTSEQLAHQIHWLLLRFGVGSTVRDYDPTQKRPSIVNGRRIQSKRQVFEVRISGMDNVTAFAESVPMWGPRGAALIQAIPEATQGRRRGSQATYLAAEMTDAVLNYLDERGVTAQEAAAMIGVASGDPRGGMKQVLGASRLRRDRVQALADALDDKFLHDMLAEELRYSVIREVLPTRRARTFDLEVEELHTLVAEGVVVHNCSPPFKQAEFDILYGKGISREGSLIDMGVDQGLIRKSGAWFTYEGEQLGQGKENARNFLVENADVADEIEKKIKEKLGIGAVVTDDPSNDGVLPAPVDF

[8] = molecular target: T4, Histone-lysine N-methyltransferase NSD2 (Homo sapiens, UniProt O96028); assay type: biochemical
T4 sequence (O96028 whole entry): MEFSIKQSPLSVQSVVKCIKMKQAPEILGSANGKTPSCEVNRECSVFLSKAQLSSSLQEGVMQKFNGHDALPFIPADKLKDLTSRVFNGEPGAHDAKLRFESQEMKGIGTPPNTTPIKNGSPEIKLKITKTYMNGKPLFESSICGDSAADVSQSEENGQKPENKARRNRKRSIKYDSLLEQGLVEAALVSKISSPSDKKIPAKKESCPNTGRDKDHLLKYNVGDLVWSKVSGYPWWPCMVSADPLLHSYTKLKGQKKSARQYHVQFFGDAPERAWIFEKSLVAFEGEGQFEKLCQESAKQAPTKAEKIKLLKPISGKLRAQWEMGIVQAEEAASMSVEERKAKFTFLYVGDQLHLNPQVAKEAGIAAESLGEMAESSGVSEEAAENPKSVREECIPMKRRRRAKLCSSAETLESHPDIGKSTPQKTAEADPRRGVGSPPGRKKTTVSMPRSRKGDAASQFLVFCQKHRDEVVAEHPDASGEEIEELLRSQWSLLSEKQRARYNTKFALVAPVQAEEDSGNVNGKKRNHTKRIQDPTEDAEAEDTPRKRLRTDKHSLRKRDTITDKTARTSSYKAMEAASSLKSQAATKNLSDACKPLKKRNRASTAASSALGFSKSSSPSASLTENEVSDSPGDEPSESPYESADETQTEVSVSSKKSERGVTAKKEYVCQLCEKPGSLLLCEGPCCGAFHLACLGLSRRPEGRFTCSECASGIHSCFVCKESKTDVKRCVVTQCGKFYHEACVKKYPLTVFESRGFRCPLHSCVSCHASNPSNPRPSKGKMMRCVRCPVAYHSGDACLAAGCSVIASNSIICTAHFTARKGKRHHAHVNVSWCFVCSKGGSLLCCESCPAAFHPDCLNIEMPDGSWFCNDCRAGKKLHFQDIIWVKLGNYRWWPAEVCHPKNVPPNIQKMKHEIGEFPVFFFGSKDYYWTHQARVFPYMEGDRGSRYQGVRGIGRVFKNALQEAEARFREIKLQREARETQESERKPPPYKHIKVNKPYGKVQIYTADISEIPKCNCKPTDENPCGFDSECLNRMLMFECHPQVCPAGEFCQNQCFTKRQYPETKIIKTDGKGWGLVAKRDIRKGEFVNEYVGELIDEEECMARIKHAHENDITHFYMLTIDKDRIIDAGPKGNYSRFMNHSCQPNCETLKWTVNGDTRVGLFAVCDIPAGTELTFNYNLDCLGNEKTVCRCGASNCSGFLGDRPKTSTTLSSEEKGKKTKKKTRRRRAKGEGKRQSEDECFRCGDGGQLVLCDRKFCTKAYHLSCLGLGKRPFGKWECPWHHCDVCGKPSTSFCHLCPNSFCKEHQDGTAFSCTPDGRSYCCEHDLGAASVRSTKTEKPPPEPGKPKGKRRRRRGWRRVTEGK

[9] = inhibitors of firefly luciferase expression or activity, dose response, H4 neuroglioma cells, luminescence (AID 1990); assay type: functional, cell-based
[10] = inhibitors of SNCA 5'UTR-driven reporter translation, confirmation, H4 neuroglioma cells, luminescence (AID 1988); assay type: functional, cell-based
[11] = molecular target: Mitochondrial peptide methionine sulfoxide reductase (Bos taurus, UniProt P54149); assay: Absorbance-based biochemical high throughput dose response assay for activators of Methionine sulfoxide reductase A (MsrA).; assay type: functional
[12] = Luminescence Cell-Based Dose Response HTS to Identify Inhibitors of 5'UTR Stem-Loop Driven Prion Protein mRNA Translation in H4 Neuroglioblastoma Cells. [Related pubchem assays: 1827 (Project Summary), 1813 (Primary HTS)]; assay type: functional

T1 sequence (P08183 whole entry): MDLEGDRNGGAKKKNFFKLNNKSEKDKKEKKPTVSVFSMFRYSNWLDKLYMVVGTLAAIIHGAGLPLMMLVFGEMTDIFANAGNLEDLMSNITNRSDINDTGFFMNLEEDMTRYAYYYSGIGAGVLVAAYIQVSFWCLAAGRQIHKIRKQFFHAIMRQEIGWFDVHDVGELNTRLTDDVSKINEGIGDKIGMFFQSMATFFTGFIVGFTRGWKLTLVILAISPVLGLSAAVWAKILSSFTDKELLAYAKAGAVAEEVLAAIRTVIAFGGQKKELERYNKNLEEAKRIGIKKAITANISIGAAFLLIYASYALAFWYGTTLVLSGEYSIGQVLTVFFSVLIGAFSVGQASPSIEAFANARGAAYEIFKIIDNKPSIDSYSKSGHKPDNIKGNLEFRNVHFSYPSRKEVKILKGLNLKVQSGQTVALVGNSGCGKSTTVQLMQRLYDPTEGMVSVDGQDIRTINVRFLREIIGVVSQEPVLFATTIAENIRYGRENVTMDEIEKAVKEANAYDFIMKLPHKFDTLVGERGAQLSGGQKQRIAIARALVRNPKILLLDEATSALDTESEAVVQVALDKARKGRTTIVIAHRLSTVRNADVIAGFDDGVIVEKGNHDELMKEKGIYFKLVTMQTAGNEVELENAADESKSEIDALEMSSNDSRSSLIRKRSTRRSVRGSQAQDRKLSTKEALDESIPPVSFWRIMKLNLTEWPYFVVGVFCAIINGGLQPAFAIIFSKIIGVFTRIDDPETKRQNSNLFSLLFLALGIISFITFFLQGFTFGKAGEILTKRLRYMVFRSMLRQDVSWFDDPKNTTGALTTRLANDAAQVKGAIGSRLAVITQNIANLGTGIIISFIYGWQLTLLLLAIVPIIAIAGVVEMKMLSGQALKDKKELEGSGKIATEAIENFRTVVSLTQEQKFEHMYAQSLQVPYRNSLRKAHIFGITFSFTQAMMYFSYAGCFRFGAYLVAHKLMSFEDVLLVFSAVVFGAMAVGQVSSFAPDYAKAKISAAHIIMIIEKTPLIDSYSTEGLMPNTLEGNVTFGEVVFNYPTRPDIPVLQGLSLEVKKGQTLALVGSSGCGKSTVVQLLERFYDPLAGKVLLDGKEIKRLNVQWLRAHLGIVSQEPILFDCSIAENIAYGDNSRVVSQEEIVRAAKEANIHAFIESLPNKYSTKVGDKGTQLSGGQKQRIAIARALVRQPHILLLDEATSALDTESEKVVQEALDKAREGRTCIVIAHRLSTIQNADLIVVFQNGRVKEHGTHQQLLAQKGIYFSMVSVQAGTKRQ
Melanocortin receptor 4, sequence (P32245 whole entry): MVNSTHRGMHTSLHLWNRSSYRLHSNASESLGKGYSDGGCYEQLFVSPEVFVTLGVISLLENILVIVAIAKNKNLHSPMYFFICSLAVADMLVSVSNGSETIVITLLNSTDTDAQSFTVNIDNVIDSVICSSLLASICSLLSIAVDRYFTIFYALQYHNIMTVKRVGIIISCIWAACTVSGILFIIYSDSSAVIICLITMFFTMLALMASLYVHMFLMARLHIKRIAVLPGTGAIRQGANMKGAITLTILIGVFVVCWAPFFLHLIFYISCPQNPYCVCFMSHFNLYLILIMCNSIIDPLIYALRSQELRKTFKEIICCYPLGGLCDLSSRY
Beta Lactamase, sequence (Q932Y6 whole entry): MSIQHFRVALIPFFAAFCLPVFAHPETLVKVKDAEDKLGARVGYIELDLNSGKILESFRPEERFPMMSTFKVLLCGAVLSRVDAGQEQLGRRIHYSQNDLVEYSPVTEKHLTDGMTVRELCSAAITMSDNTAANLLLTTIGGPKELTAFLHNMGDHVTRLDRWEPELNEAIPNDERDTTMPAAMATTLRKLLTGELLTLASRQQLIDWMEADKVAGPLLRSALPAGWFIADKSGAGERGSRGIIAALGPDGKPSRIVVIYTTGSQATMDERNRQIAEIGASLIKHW
Mitochondrial peptide methionine sulfoxide reductase, sequence (P54149 whole entry): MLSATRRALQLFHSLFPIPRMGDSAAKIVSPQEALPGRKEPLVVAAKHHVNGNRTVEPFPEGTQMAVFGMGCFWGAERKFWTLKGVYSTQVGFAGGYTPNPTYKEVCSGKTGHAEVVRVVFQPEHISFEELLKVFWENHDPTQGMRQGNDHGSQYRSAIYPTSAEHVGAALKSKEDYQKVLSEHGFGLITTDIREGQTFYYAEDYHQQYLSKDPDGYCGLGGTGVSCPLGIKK
Paired box protein Pax-8, sequence (Q06710 whole entry, the tested form may be a part): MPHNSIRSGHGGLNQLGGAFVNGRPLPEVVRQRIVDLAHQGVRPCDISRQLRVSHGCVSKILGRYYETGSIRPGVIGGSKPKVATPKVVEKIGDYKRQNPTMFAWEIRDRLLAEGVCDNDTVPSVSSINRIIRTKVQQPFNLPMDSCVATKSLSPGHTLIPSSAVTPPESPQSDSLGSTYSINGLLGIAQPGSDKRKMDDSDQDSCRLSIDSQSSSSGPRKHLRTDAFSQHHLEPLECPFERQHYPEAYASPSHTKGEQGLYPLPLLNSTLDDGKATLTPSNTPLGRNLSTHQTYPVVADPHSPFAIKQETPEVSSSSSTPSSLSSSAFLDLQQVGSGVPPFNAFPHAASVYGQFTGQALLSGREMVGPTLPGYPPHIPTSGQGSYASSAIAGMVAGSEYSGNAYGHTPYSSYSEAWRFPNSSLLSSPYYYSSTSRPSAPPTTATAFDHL

## Cc1cc(N2CCN(C(=O)c3ccco3)CC2)n2nc(-c3cccc(Cl)c3)cc2n1
[1]
  EC50: 2.24 µM (active)
[2]
  CC50: 34.7 µM (active)
[3]
  EC50: 5.05 µM (inactive)
Melanocortin receptor 4
  EC50: > 89.2 µM (inactive)

## CC(C)(C)[C@H](N)C(=O)N[C@H]1CCC2C3CC=C4C[C@@H](O)CC[C@]4(C)C3CC[C@@]21C (some centres not stated)
[4]
  AC50: 40.7 µM (active)
Paired box protein Pax-8
  AC50: 9.31 µM (active)
[5]
  IC50: 17.7 µM (inactive)
Beta Lactamase
  IC50: 19.5 µM (inactive)
[6]
  AC50: 3.67 µM (active)

## NC1=C(Br)C(=O)c2ccccc2C1=O
INS1
  AC50: 6.52 µM (active)
[7]
  AC50: 2.95 µM (active)
Protein RecA
  EC50: 2.99 µM (active)
[8]
  AC50: 10 µM (active)
[9]
  EC50: > 60 µM (not active)
[10]
  EC50: > 120 µM (not active)
[11]
  EC50: 61.9 µM (inactive)
[12]
  EC50: > 60 µM (not active)
